Patent publication US9394285B2 (Pfizer Inc., priority 2013, dated 2016)
Where “and” joins values, the source holds several entries; their conditions need not be identical. Identical values can stand only once.

Molecular target: human AMPK (full-length γ1, β1 and α1 subunits) (Homo sapiens (Human), UniProt Q13131+Q9Y478)
Assay: AMPK in vitro biochemical assay (33P-based, SAMS peptide, PP2A dephosphorylation)
Settings: for EC50: activation of phosphorylated AMPK, 33P-ATP, SAMS peptide, PP2A treatment, 4-parameter fit; for Maximum / Emax: counts as % of positive control wells (enzyme, allosteric activator or AMP, PP2A and substrate); for Emax: read-out: Maximum
Method in brief: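 Phosphorylated full-length α1β1γ1 AMPK (E. coli-expressed, His-purified, gel-filtered) preincubated 15 min RT with compound in HEPES pH 7.5, 10 mM MgCl2 buffer, then PP2A added to dephosphorylate pThr172.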

Chain of human AMPK (full-length γ1, β1 and α1 subunits) (Q13131 whole entry): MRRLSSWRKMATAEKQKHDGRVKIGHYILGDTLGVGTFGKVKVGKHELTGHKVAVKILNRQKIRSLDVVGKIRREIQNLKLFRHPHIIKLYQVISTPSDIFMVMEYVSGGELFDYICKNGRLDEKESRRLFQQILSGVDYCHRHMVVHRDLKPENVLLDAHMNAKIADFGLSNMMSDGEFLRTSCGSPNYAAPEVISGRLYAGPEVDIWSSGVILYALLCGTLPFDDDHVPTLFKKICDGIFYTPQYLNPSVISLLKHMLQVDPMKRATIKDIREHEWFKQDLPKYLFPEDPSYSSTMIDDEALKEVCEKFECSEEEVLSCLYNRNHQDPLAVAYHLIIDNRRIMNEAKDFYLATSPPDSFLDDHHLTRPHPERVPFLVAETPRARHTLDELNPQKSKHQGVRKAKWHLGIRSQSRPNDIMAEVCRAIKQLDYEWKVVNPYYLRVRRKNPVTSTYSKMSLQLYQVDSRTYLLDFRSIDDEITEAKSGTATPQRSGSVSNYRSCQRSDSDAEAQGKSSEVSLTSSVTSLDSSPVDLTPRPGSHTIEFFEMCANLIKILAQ
Chain of human AMPK (full-length γ1, β1 and α1 subunits) (Q9Y478 whole entry): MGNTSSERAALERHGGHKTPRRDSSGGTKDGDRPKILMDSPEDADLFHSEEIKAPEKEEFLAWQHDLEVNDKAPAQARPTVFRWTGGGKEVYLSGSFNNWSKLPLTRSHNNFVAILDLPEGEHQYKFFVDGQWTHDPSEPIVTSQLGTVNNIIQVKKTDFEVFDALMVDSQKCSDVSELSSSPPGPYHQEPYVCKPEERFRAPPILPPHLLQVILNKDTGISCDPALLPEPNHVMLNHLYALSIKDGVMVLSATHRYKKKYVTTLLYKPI
Chain of human AMPK (full-length γ1, β1 and α1 subunits) (P54619 whole entry partner): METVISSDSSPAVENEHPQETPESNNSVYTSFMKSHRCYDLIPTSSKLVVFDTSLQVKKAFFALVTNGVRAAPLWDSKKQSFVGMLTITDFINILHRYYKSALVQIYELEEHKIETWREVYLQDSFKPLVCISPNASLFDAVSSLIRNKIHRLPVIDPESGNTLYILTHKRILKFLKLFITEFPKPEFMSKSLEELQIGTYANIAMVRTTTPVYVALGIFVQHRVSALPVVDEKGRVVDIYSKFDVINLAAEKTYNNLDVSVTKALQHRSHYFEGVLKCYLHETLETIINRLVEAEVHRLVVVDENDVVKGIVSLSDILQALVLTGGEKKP

| SMILES | EC50 | Maximum [%] | Emax [%] |
| --- | --- | --- | --- |
| O=C(O)c1n[nH]c2cc(Cl)c(-c3ccc(C4CC(O)C4)cc3)cc12 [Example 120, 6-Chloro-5-(4-((1S,3S)-3-hydroxycyclobutyl)phenyl)-1H-indazole-3-carboxylic acid] | – | 88 | – |
| CC(C)(CO)c1ccc(-c2c(F)cc3[nH]cc(C(=O)O)c3c2F)cc1 [Example 26, 4,6-difluoro-5-[4-(1-hydroxy-2-methylpropan-2-yl)phenyl]-1H-indole-3-carboxylic acid] | 124 nM | – | 74 |
| O=C(O)c1c[nH]c2cc(F)c(-c3ccc(C4CCCO4)cc3)c(F)c12 (centres unmarked) [Example 153, 4,6-difluoro-5-[4-(tetrahydrofuran-2-yl)phenyl]-1H-indole-3-carboxylic acid] | – | 112.3 | – |
| O=C(O)c1n[nH]c2cc(Cl)c(-c3ccc4c(c3)CCO4)cc12 [Example 113, 6-Chloro-5-(2,3-dihydrobenzofuran-5-yl)-1H-indazole-3-carboxylic acid] | 345 nM | – | 100 |
| CCOc1ccc(-c2cc3c(C(=O)O)c[nH]c3cc2Cl)cc1 [Example 31, 6-Chloro-5-(4-ethoxyphenyl)-1H-indole-3-carboxylic acid] | 130 nM | – | 104 |
| O=C(O)c1c[nH]c2cc(Cl)c(-c3ccc(C4CNC4)cc3)cc12 [Example 91, 5-[4-(azetidin-3-yl)phenyl]-6-chloro-1H-indole-3-carboxylic acid] | 695 nM | – | 101 |
| O=C(O)c1c[nH]c2cc(F)c(-c3ccc(C4CCCO4)cc3)cc12 (single isomer, unassigned) [Example 150, 6-fluoro-5-[4-(tetrahydrofuran-2-yl)phenyl]-1H-indole-3-carboxylic acid] | 165 nM | – | 112 |
| COc1cc(-c2cc3c(C(=O)O)c[nH]c3cc2F)ccc1C1(O)CCC1 [Example 25, 6-fluoro-5-[4-(1-hydroxycyclobutyl)-3-methoxyphenyl]-1H-indole-3-carboxylic acid] | 111 nM | – | 78 |
| O=C(O)c1c[nH]c2cc(F)c(-c3ccc(OCCC4CCOC4)cc3)c(F)c12 (centres unmarked) [Example 190, 4,6-difluoro-5-{4-[2-(tetrahydrofuran-3-yl)ethoxy]phenyl}-1H-indole-3-carboxylic acid] | 109 nM | – | 108 |
| Cc1ccc(-c2cc3c(C(=O)O)c[nH]c3cc2Cl)cc1 [Example 51, 6-chloro-5-(4-methylphenyl)-1H-indole-3-carboxylic acid] | 320 nM | – | 93 |
| O=C(O)c1c[nH]c2cc(Cl)c(-c3ccc(CC(=O)N4CCC4)cc3)cc12 [Example 11, 5-{4-[2-(azetidin-1-yl)-2-oxoethyl]phenyl}-6-chloro-1H-indole-3-carboxylic acid] | 554 nM | – | 73 |
| N#Cc1cc2[nH]cc(C(=O)O)c2cc1-c1ccc(OCCO)cc1 [Example 95, 6-cyano-5-[4-(2-hydroxyethoxy)phenyl]-1H-indole-3-carboxylic acid] | 830 nM | – | 91 |
| CC(=O)N1CCC(c2ccc(-c3cc4c(C(=O)O)c[nH]c4cc3Cl)cc2)CC1 [Example 65, 5-[4-(1-acetylpiperidin-4-yl)phenyl]-6-chloro-1H-indole-3-carboxylic acid] | 135 nM | – | 103 |
| O=C(O)c1c[nH]c2cc(F)c(-c3ccc(OCCC4CCCO4)cc3)c(F)c12 (centres unmarked) [Example 191, 4,6-difluoro-5-{4-[2-(tetrahydrofuran-2-yl)ethoxy]phenyl}-1H-indole-3-carboxylic acid] | 121 nM | – | 140 |
| O=C(O)c1c[nH]c2cc(Cl)c(-c3ccc(OC4COC4)cc3)cc12 [Example 18, 6-chloro-5-[4-(oxetan-3-yloxy)phenyl]-1H-indole-3-carboxylic acid] | 181 nM | – | 92 |
| CC(C)(CO)c1ccc(-c2cc3c(C(=O)O)c[nH]c3cc2Cl)cc1F [Example 163, 6-chloro-5-[3-fluoro-4-(1-hydroxy-2-methylpropan-2-yl)phenyl]-1H-indole-3-carboxylic acid] | 12.9 nM and 10.3 nM | – | 110 |

Further compounds by falling EC50, results first:

| EC50 | Maximum [%] | Emax [%] | SMILES |
| --- | --- | --- | --- |
| 104 nM | – | 102 | O=C1COC(c2ccc(-c3cc4c(C(=O)O)c[nH]c4cc3Cl)cc2)CN1 (centres unmarked) [Example 79, 6-chloro-5-[4-(5-oxomorpholin-2-yl)phenyl]-1H-indole-3-carboxylic acid] |
| 94.4 nM | – | 92 | CC(O)(c1ccc(-c2cc3c(C(=O)O)n[nH]c3cc2Cl)cc1)C(F)(F)F (centres unmarked) [Example 108, 6-Chloro-5-(4-(1,1,1-trifluoro-2-hydroxypropan-2-yl)phenyl)-1H-indazole-3-carboxylic acid] |
| 93.8 nM | – | 93 | O=C(O)c1n[nH]c2cc(Cl)c(-c3ccc(C4CCOC4)cc3)cc12 (racemic) [Example 124, (±)-6-Chloro-5-(4-(tetrahydrofuran-3-yl)phenyl)-1H-indazole-3-carboxylic acid] |
| 74.2 nM | – | 72 | Cc1cc2[nH]cc(C(=O)O)c2cc1-c1ccc(C2(O)CCC2)cc1 [Example 35, 5-[4-(1-hydroxycyclobutyl)phenyl]-6-methyl-1H-indole-3-carboxylic acid] |
| 64.5 nM | – | 107 | O=C(O)c1c[nH]c2cc(Cl)c(-c3ccc4c(c3)OCC4)cc12 [Example 57, 6-chloro-5-(2,3-dihydrobenzofuran-6-yl)-1H-indole-3-carboxylic acid] |
| 58.1 nM | – | 78 | O=C(O)c1c[nH]c2cc(Cl)c(-c3ccc(C4(C(=O)O)CC4)cc3)cc12 [Example 88, 5-[4-(1-carboxycyclopropyl)phenyl]-6-chloro-1H-indole-3-carboxylic acid] |
| 58.1 nM | – | 83 | O=C(O)c1c[nH]c2cc(Cl)c(-c3ccc(C4(CO)COC4)cc3)cc12 [Example 96, 6-chloro-5-{4-[3-(hydroxymethyl)oxetan-3-yl]phenyl}-1H-indole-3-carboxylic acid] |
| 47.8 nM | 126.9 | – | O=C(O)c1c[nH]c2cc(Cl)c(-c3ccc(C4CCCO4)cc3)cc12 (single isomer, unassigned) [Example 155, 6-chloro-5-[4-(tetrahydrofuran-2-yl)phenyl]-1H-indole-3-carboxylic acid] |
| 43.5 nM | – | 60 | CC(=O)N1CCN(c2ccc(-c3cc4c(C(=O)O)n[nH]c4cc3Cl)cc2)CC1 [Example 107, 5-(4-(4-Acetylpiperazin-1-yl)phenyl)-6-chloro-1H-indazole-3-carboxylic acid] |
| 38.5 nM | – | 94 | CCOc1ccc(-c2cc3c(C(=O)O)n[nH]c3cc2Cl)cc1 [Example 99, 6-Chloro-5-(4-ethoxyphenyl)-1H-indazole-3-carboxylic acid] |
| 31.9 nM | – | 159 | O=C(O)c1c[nH]c2cc(F)c(-c3ccc(C4(CO)CCC4)cc3F)cc12 [Example 165, 6-fluoro-5-{2-fluoro-4-[1-(hydroxymethyl)cyclobutyl]phenyl}-1H-indole-3-carboxylic acid] |
| 28.3 nM | 104.8 | – | O=C(O)c1c[nH]c2cc(Cl)c(-c3ccc(C4CCCO4)cc3)cc12 (single isomer, unassigned) [Example 154, 6-chloro-5-[4-(tetrahydrofuran-2-yl)phenyl]-1H-indole-3-carboxylic acid] |
| 17.9 nM | – | 95 | COc1cc(-c2cc3c(C(=O)O)n[nH]c3cc2Cl)ccc1C1(O)CCC1 [Example 131, 6-Chloro-5-[4-(1-hydroxycyclobutyl)-3-methoxyphenyl]-1H-indazole-3-carboxylic acid] |
| 17.3 nM | – | 118 | O=C(O)c1c[nH]c2cc(Cl)c(-c3ccc(OCc4ncccn4)cc3)cc12 [Example 160, 6-chloro-5-[4-(pyrimidin-2-ylmethoxy)phenyl]-1H-indole-3-carboxylic acid] |
| 13.7 nM | – | 122 | O=C(O)c1c[nH]c2cc(F)c(-c3ccc(C4(CO)CC4)cc3)c(F)c12 [Example 22, 4,6-difluoro-5-(4-(1-(hydroxymethyl)cyclopropyl)phenyl)-1H-indole-3-carboxylic acid] |
| 11 nM | 101.1 | – | O=C(O)c1c[nH]c2cc(F)c(-c3ccc(C4CCCCO4)cc3)cc12 (single isomer, unassigned) [Example 172, 6-fluoro-5-[4-(tetrahydro-2H-pyran-2-yl)phenyl]-1H-indole-3-carboxylic acid] |
| 9.6 nM | – | 62 | Cc1cc(-c2cc3c(C(=O)O)c[nH]c3cc2Cl)ccc1C1(O)CCC1 [Example 41, 6-chloro-5-[4-(1-hydroxycyclobutyl)-3-methylphenyl]-1H-indole-3-carboxylic acid] |
| 9.33 nM | 143.1 | – | O=C(O)c1c[nH]c2cc(F)c(-c3ccc(C4(CO)CCC4)cc3)c(F)c12 [Example 167, 4,6-difluoro-5-{4-[1-(hydroxymethyl)cyclobutyl]phenyl}-1H-indole-3-carboxylic acid] |
| 8.3 nM | – | 80 | O=C(O)c1n[nH]c2cc(Cl)c(-c3ccc(C4(O)CCC4)cc3)cc12 [Example 103, 6-Chloro-5-(4-(1-hydroxycyclobutyl)phenyl)-1H-indazole-3-carboxylic acid] |
| 6.5 nM | – | 82 | O=C(O)c1c[nH]c2cc(F)c(-c3ccc(-c4ccccc4O)cc3)cc12 [Example 135, 6-fluoro-5-(2′-hydroxybiphenyl-4-yl)-1H-indole-3-carboxylic acid] |
| 4.3 nM | – | 117 | O=C(O)c1c[nH]c2cc(Br)c(-c3ccc(-c4ccccc4O)cc3)cc12 [Example 68, 6-Bromo-5-(2′-hydroxybiphenyl-4-yl)-1H-indole-3-carboxylic acid] |
| 2.3 nM | – | 57 | COc1cc(-c2cc3c(C(=O)O)c[nH]c3cc2Cl)ccc1C1(O)CCC1 [Example 61, 6-chloro-5-[4-(1-hydroxycyclobutyl)-3-methoxyphenyl]-1H-indole-3-carboxylic acid] |
